Data as given in patent publication US20140221499A1, “NOVEL RODENT CONTROL AGENTS AND USES THEREOF” (priority 2011, published 2014).

Legend:
mouse TAAR4 = target: T1, mouse TAAR4 (Mus musculus, UniProt Q5QD15); assay: TAAR4 CRE-SEAP reporter gene assay in transfected HEK293 cells; type: cell-based; conditions: 10 μM
T1 construct: Full Taar coding regions were cloned into pcDNA3.1-(Invitrogen); expressed in transfected cells; host or cells: HEK293
T1 sequence (Q5QD15 1-347): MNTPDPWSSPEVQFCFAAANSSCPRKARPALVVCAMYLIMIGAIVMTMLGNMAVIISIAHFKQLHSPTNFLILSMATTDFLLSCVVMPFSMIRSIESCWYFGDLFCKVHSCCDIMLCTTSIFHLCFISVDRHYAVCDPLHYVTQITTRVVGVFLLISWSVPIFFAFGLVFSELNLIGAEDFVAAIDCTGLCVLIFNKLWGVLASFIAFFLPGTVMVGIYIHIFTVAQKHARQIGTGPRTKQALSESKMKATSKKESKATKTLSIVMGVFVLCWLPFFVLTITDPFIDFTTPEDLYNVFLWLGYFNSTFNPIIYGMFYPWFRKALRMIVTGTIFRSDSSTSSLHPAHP
Experimental: Fluorescence was measured on an EnVision plate reader (Perkin Elmer) and SEAP activity graphed as relative fluorescence of a phosphatase substrate.
(§1) HEK293 cells were co-transfected with TAAR expression plasmids and a cAMPdependent reporter gene encoding secreted alkaline phosphatase (CRE-SEAP). Transfected cells were incubated with urine extracts from different mammalian species, and phosphatase activity was quantified with a fluorescent substrate as a reporter for TAAR activation.
Test urines were diluted in serum-free media containing penicillin G (100 Units/ml, Invitrogen) and streptomycin sulfate (100 mg/ml, Invitrogen). SEAP activity is measured as fluorescence resulting from dephosphorylation of a substrate, 4-methylumbelliferyl phosphate. Fluorescence values were obtained using an EnVision plate reader (Perkin Elmer) and are reported directly without normalization.

mouse TAAR3 = target: T2, mouse TAAR3 (Mus musculus, UniProt Q5QD16); assay: TAAR3 CRE-SEAP reporter gene assay in transfected HEK293 cells; type: cell-based
T2 construct: Full Taar coding regions were cloned into pcDNA3.1-(Invitrogen); expressed in transfected cells; host or cells: HEK293
T2 sequence (Q5QD16 1-343): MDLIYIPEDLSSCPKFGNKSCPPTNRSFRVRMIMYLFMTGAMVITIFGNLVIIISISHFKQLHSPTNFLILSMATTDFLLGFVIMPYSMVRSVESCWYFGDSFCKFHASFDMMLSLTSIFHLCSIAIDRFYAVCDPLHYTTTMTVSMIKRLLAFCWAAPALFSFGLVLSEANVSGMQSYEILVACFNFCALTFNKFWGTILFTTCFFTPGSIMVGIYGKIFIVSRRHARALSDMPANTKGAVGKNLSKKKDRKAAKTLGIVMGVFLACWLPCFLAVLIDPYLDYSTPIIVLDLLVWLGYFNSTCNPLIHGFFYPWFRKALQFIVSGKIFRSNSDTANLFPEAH
Experimental: Reporter gene assays were performed on HEK293 cells transfected with mouse TAAR3 and CRE-SEAP.
TAAR functional assays. Reporter gene assays were performed as described (Liberles S D & Buck LB (2006) A second class of chemosensory receptors in the olfactory epithelium. Nature 442(7103):645-650) with the following minor modifications. Test urines were diluted in serum-free media containing penicillin G (100 Units/ml, Invitrogen) and streptomycin sulfate ([…], Invitrogen). SEAP activity is measured as fluorescence resulting from dephosphorylation of a substrate, 4-methylumbelliferyl phosphate. Fluorescence values were obtained using an EnVision plate reader (Perkin Elmer) and are reported directly without normalization. All TAARs, except mouse TAAR3, were expressed as fusion proteins with an N-terminal sequence of bovine rhodopsin (Krautwurst D, Yau K W, & Reed R R (1998) Identification of ligands for olfactory receptors by functional expression of a receptor library. Cell 95(7):917-926).

mTAAR4 = target: T3, mTAAR4 (Mus musculus, UniProt Q5QD15); assay: CRE-SEAP reporter gene assay in HEK293 cells transfected with mTAAR4 (fusion with N-terminal sequence of bovine rhodopsin, 'Rho tag'); type: cell-based; conditions: FIG. 11B, mTAAR4 required a 'Rho tag' (N-terminal bovine rhodopsin sequence, first 20 amino acids), EC50 ± s.e.m., 4-parameter Hill equation
T3 construct: Full Taar coding regions were cloned into pcDNA3.1; expressed in transfected cells; host or cells: HEK293
T3 sequence (Q5QD15 with tags, fused parts or gaps): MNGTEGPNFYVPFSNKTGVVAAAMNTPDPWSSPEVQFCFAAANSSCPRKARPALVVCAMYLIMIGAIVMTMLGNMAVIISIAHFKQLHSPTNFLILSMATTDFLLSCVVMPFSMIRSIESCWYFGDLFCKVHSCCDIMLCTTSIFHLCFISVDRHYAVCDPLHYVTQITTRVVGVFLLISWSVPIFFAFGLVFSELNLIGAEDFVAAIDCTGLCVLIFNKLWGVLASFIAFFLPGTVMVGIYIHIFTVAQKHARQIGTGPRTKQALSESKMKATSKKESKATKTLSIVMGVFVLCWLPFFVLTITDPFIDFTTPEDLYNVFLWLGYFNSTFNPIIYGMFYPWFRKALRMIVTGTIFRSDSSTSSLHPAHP
Experimental: (A) HEK293 cells were transfected with TAAR4 and reporter plasmids, incubated with urine extracts of species indicated, and assayed for reporter activity (triplicates±SD). […] TAAR4 was expressed as a fusion protein with an N-terminal sequence of bovine rhodopsin, which provided enhanced signal (24). […] Urine (diluted 300- or 100-fold) or urine extracts (diluted 30-, 10-, or 3-fold) of species indicated were tested (triplicates±s.d.).
FIG. 11 illustrates the dose-dependent responses of TAARs to amines. […] EC50 values (±s.e.m, bottom right) were calculated using SigmaPlot (Systat Software) and a 4-parameter Hill equation.
Full Taar coding regions were cloned into pcDNA3.1-(Invitrogen) with or without a 5′ DNA extension of 69 bp encoding the first 20 amino acids of bovine rhodopsin followed by a cloning linker ([sequence]). […] Fluorescence was measured on an EnVision plate reader (Perkin Elmer) and SEAP activity graphed as relative fluorescence of a phosphatase substrate.
as §1

[1] = tested on: corticosterone levels in rat plasma; assay: Plasma corticosterone assay after odor exposure; type: in vivo; conditions: 30 min exposure, 10% amine or 2% TMT, 1 ml, ±SEM
Experimental: Avoidance to 2-phenylethylamine in rats was associated with acute changes in circulating levels of the stress hormone corticosterone.
Plasma corticosterone assay. […] Corticosterone levels were measured in duplicate using a competitive radioactive binding assay as described previously (Pryce C R, Bettschen D, Bahr N I, & Feldon J (2001) Comparison of the effects of infant handling, isolation, and nonhandling on acoustic startle, prepulse inhibition, locomotion, and HPA activity in the adult rat. Behav Neurosci 115(1):71-83).

SMILES: NCCc1ccccc1 [2-phenylethylamine]
- TAAR4 activation (mouse TAAR4): activates TAAR4
- EC50 (mouse TAAR3): ~100 µM
- reduced sensitivity of TAAR3 compared to TAAR4 (mouse TAAR3; TAAR3 vs TAAR4): 30 fold
- EC50 (mTAAR4): 7.5 ± 3.7 µM
- plasma levels of corticosterone [1]: 194 ± 18 ng/mL
